This is an account of results in patent publication US20180099937A1, “NOVEL ARYL-CYANOGUANIDINE COMPOUNDS” (Bayer Pharma Aktiengesellschaft, priority 2015, published 2018).

pIC50: −log10 of the molar value. Where only a bound is given, the exact number is not on record here.

Chain of SMYD2 (Q9NRG4 whole entry): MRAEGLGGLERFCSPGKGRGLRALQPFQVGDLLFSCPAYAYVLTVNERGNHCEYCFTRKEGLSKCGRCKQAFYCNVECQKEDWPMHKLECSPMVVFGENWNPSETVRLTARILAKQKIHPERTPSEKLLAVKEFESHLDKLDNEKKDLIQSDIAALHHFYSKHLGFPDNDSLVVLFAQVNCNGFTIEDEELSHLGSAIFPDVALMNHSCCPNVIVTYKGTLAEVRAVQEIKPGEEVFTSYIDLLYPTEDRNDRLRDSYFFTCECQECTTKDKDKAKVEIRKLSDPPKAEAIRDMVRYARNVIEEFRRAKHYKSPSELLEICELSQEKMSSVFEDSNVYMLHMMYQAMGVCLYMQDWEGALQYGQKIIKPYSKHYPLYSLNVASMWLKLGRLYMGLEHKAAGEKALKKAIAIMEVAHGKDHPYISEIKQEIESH

This assay has as its target SMYD2 (Homo sapiens, UniProt Q9NRG4). The assay can be described thus: Scintillation Proximity Assay (SPA) for detection of SMYD2 enzymatic inhibition. Format: biochemical. More on the design: The SMYD2 full length enzyme was produced in-house by expression (with an N-terminal 6× His tag) in E. coli; 6xHis (N); made in house; host or cells: E. coli. The conditions noted are these: SMYD2 full length enzyme, p53 Peptide substrate 1.0 μM, 3H-SAM 60 nM; read-out: IC50 [mol/l] (SPA Assay). The source says:
1.1 Scintillation Proximity Assay (SPA) for Detection of SMYD2 Enzymatic Inhibition
SMYD2 inhibitory activities of the compounds described in the present invention were quantified using a scintillation proximity assay (SPA) which measures methylation by the enzyme of the synthetic, biotinylated peptide Btn-Ahx-[…]—Amid×TFA (Biosyntan) derived from p53 and referred to from here on as “p53 Peptide”. The SMYD2 full length enzyme was produced in-house by expression (with an N-terminal 6× His tag) in E. coli and purification by affinity chromatography on a Ni-NTA Sepharose column followed by a size exclusion chromatography step on a Superdex 200 16/60 column (GE Healthcare).
In a typical assay 11 different concentrations of each compound (0.1 nM, 0.33 nM, 1.1 nM, 3.8 nM, 13 nM, 44 nM, 0.15 μM, 0.51 μM, 1.7 μM, 5.9 μM and 20 μM) were tested in duplicate within the same microtiter plate. To this end, 100-fold concentrated compound solutions (in DMSO) were previously prepared by serial dilution (1:3.4) of 2 mM stocks in a clear low volume 384-well source microliter plate (Greiner Bio-One), from which 50 nl of compound solutions were transferred into a white low volume test microtiter plate from the same supplier. Subsequently, 2.5 μl SMYD2 in aqueous assay buffer [50 mM Tris/HCl pH 9.0 (AppliChem), 1 mM dithiothreitol (DTT, Sigma), 0.01% (w/v) bovine serum albumine (BSA, Sigma), 0.0022% (v/v) Pluronic (Sigma)] were added to the compounds in the test plate to a final enzyme concentration of —typically—3 nM (this parameter was adjusted depending on the activity of the enzyme lot in order to be within the linear dynamic range of the assay). The samples were then incubated for 15 min at 22° C. to allow pre-equilibration of the putative enzyme-inhibitor complexes before the start of the methylation reaction, which was initiated by the addition of 2.5 μl 2-fold concentrated solution (in assay buffer) of titriated S-Adenosyl-L-Methionine (3H-SAM, Perkin Elmer, final concentration: 60 nM) and p53 Peptide substrate (final concentration: 1.0 μM). The resulting mixture (5 μl final volume) was shortly centrifuged (2 min., 1500 rpm) and incubated at 22° C. during 30 min. Thereupon the reaction was stopped by adding 3 μl of Streptavidin PS SPA imaging beads (Perkin Elmer, final concentration of 3.12 μg/μl) and “cold” SAM (AK Scientific, 25 μM final concentration) for non-specific binding reduction. Plates containing the stopped reaction were sealed with transparent adhesive foil (Perkin Elmer), centrifuged (2 min., 1500 rpm), and further incubated for —at least—1 h at RT (or overnight at 4° C.) in order to allow the SPA signals to develop. Subsequently, the amount of product was evaluated by measuring the energy transfer from the β-particles emitted by the 3H-labeled substrate to the Europium scintillator co-polymerized in the polystyrene matrix of the PS imaging beads, using the standard settings for this purpose of a Viewlux (Perkin-Elmer) CCD plate imaging device (emission filter 613/55 (IFP). The resulting scintillation counts were taken as indicator for the amount of methylated peptide per well. The data were normalised using two sets of control wells (typically 16 each) for high−(=enzyme reaction with DMSO instead of test compound=0% =Minimum inhibition) and low−(=all assay components without enzyme=100% =Maximum inhibition) SMYD2 activity. IC50 values were calculated by fitting the normalized inhibition data to a 4-parameter logistic equation using the “Screener” analysis software from Genedata.
As to `C[C@]1(C(=O)NC2CN(/C(=N\C#N)Nc3cccc(OC(F)F)c3)N=C2c2ccc(Cl)c(Cl)c2)CCCN1` (single isomer, unassigned) [Example 6.2, N-[1-{N′-Cyano-N-[3-(difluoromethoxy)phenyl]carbamimidoyl}-3-(3,4-dichlorophenyl)-4,5-dihydro-1H-pyrazol-4-yl]-2-methyl-D-prolinamide], the pIC50 is 6.63.
Then `CCN(C(=O)[C@H]1CCCN1)C1CN(/C(=N\C#N)Nc2cccc(OC(F)F)c2F)N=C1c1ccc(Cl)c(Cl)c1` (single isomer, unassigned) [Example 13.2, N-[1-{N′-Cyano-N-[3-(difluoromethoxy)-2-fluorophenyl]carbamimidoyl}-3-(3,4-dichlorophenyl)-4,5-dihydro-1H-pyrazol-4-yl]-N-ethyl-D-prolinamide], with 6.57; and `CCN(C(=O)[C@H]1CCCN1)C1CN(/C(=N\C#N)Nc2cccc(OC(F)(F)F)c2)N=C1c1ccc(Cl)c(Cl)c1` (single isomer, unassigned) [Example 17.1, N-[1-{N′-Cyano-N-[3-(trifluoromethoxy)phenyl]carbamimidoyl}-3-(3,4-dichlorophenyl)-4,5-dihydro-1H-pyrazol-4-yl]-N-ethyl-D-prolinamide], with 7.68; and `CCN(C(=O)[C@H]1CCCN1)C1CN(/C(=N\C#N)Nc2cccc(OC(F)(F)F)c2)N=C1c1ccc(Cl)c(Cl)c1` (single isomer, unassigned) [Example 17.2, N-[1-{N′-Cyano-N-[3-(trifluoromethoxy)phenyl]carbamimidoyl}-3-(3,4-dichlorophenyl)-4,5-dihydro-1H-pyrazol-4-yl]-N-ethyl-D-prolinamide], with 5.86.
`CCN(C(=O)[C@H]1CCCN1)C1CN(/C(=N\C#N)Nc2ccc(F)c(OC(F)(F)F)c2)N=C1c1ccc(Cl)c(Cl)c1` (single isomer, unassigned) [Example 22.2, N-[1-{N′-Cyano-N-[4-fluoro-3-(trifluoromethoxy)phenyl]carbamimidoyl}-3-(3,4-dichlorophenyl)-4,5-dihydro-1H-pyrazol-4-yl]-N-ethyl-D-prolinamide]: the pIC50 is 6.53.
The result for `CCN(C(=O)[C@H]1CCCN1)C1CN(/C(=N\C#N)Nc2cc(F)cc(OC(F)(F)F)c2)N=C1c1ccc(Cl)c(Cl)c1` (single isomer, unassigned) [Example 24.2, N-[1-{N′-Cyano-N-[3-fluoro-5-(trifluoromethoxy)phenyl]carbamimidoyl}-3-(3,4-diehlorophenyl)-4,5-dihydro-1H-pyrazol-4-yl]-N-ethyl-D-prolinamide] reads 5.40.
Take `CCN(C(=O)[C@H]1C[C@@H](F)CN1)C1CN(/C(=N\C#N)Nc2cc(F)cc(OC(F)(F)F)c2)N=C1c1ccc(Cl)c(Cl)c1` (single isomer, unassigned) [Example 25.1]: the pIC50 was 6.61.
The result for `CCN(C(=O)[C@H]1C[C@@H](F)CN1)C1CN(/C(=N\C#N)Nc2cc(F)cc(OC(F)(F)F)c2)N=C1c1ccc(Cl)c(Cl)c1` (single isomer, unassigned) [Example 25.2] reads below 4.70; that for `CCN(C(=O)[C@H]1CCCN1)C1CN(/C(=N\C#N)Nc2cc(C(F)(F)F)ccc2OC(F)(F)F)N=C1c1ccc(Cl)c(Cl)c1` (single isomer, unassigned) [Example 30.1, N-[1-{N′-Cyano-N-[2-(trifluoromethoxy)-5-(trifluoromethyl)phenyl]carbamimidoyl}-3-(3,4-dichlorophenyl)-4,5-dihydro-1H-pyrazol-4-yl]-N-ethyl-D-prolinamide], 7.26.
The result for `CCN(C(=O)[C@H]1CCCN1)C1CN(/C(=N\C#N)Nc2cc(C(F)(F)F)ccc2OC(F)(F)F)N=C1c1ccc(Cl)c(Cl)c1` (single isomer, unassigned) [Example 30.2, N-[1-{N′-Cyano-N-[2-(trifluoromethoxy)-5-(trifluoromethyl)phenyl]carbamimidoyl}-3-(3,4-dichlorophenyl)-4,5-dihydro-1H-pyrazol-4-yl]-N-ethyl-D-prolinamide] reads 5.81; that for `CCN(C(=O)[C@H]1CCCN1)C1CN(/C(=N\C#N)Nc2cccc(CC(F)(F)F)c2)N=C1c1ccc(Cl)c(Cl)c1` (single isomer, unassigned) [Example 31.1, N-[1-{N′-Cyano-N-[3-(2,2,2-trifluoroethyl)phenyl]carbamimidoyl}-3-(3,4-dichlorophenyl)-4,5-dihydro-1H-pyrazol-4-yl]-N-ethyl-D-prolinamide], 7.47; that for `CCN(C(=O)[C@H]1CCCN1)C1CN(/C(=N\C#N)Nc2cccc(CC(F)(F)F)c2)N=C1c1ccc(Cl)c(Cl)c1` (single isomer, unassigned) [Example 31.2, N-[1-{N′-Cyano-N-[3-(2,2,2-trifluoroethyl)phenyl]carbamimidoyl}-3-(3,4-dichlorophenyl)-4,5-dihydro-1H-pyrazol-4-yl]-N-ethyl-D-prolinamide], 6.68.
Then `CCN(C(=O)[C@H]1CCN1)C1CN(/C(=N\C#N)Nc2cccc(OC(F)F)c2)N=C1c1ccc(Cl)c(C)c1` (single isomer, unassigned) [Example 36.2], with 6.52; and `CCN(C(=O)[C@H]1CCCN1)C1CN(/C(=N\C#N)Nc2cccc(OC(F)F)c2)N=C1c1ccc(Cl)c(C)c1` (single isomer, unassigned) [Example 37.2, N-[3-(4-Chloro-3-methylphenyl)-1-{N′-cyano-N-[3-(difluoromethoxy)phenyl]carbamimidoyl}-4,5-dihydro-1H-pyrazol-4-yl]-N-ethyl-D-prolinamide], with below 4.70; and `CCN(C(=O)[C@H]1C[C@@H](F)CN1)C1CN(/C(=N\C#N)Nc2cccc(OC(F)F)c2)N=C1c1ccc(Cl)c(C)c1` (single isomer, unassigned) [Example 38.2], with around 4.70.
As for `CCN(C(=O)[C@H]1C[C@@H](O)CN1)C1CN(/C(=N\C#N)Nc2cccc(OC(F)F)c2)N=C1c1ccc(Cl)c(C)c1` (single isomer, unassigned) [Example 39.1], the pIC50 was 7.49.
Then `CCN(C(=O)[C@H]1C[C@@H](O)CN1)C1CN(/C(=N\C#N)Nc2cccc(OC(F)F)c2)N=C1c1ccc(Cl)c(C)c1` (single isomer, unassigned) [Example 39.2], with 5.79; and “(2R)-N-[3-(4-chlaro-3-methylphenyl)-1-{N′-cyano-N-[3-(difluoromethoxy)phenyl]carbamimidoyl}-4,5-dihydro-1H-pyrazol-4-yl]-N-ethylpiperidine-2-carboxamide [Example 46]”, with 5.82.
